In ChEMBL document CHEMBL1201862, “PubChem BioAssay data set” (2004):
Active and inactive are the calls of the source.

Key:
Beta-galactosidase = Beta-galactosidase (Escherichia coli, UniProt Q8VNN2); assay: Dose response counterscreen for EBI2 assay utilizing the enzyme, b-galactosidase.; assay type: functional
[1] = target: Kappa-type opioid receptor (Homo sapiens, UniProt P41145); assay type: functional
[2] = target: T1, ATP-dependent translocase ABCB1 (Homo sapiens, UniProt P08183); assay: ABCB1 efflux inhibitor potency, dose response, Jurkat-DNR cells, JC-1, flow cytometry, set 2 (AID 504569); assay type: functional; details: read-out: EC50_MICROM_;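 note: potency of pump inhibitors that raise cellular JC-1 green fluorescence up to the nicardipine level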
[3] = target: T1, ATP-dependent translocase ABCB1; assay: ABCG2 efflux pump inhibitor potency, dose response, Ig-MXP3 cells, JC-1, flow cytometry, set 2 (AID 504566); assay type: functional; details: read-out: EC50_MICROM_;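 note: flow cytometry median green fluorescence of retained JC-1 dye; potency of efflux pump inhibition measured as rising substrate retention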
Vero = assay: Vero cell toxicity, dose response, cytotoxicity control, plate reader, cherry-pick samples (AID 687020); assay type: functional, cell-based; details: Chlorocebus sabaeus
A549 = assay: A549 cell toxicity, dose response, cytotoxicity control, plate reader, cherry-pick samples (AID 687028); assay type: functional, cell-based; details: Homo sapiens
[4] = P. falciparum Dd2 growth inhibitors, dose response, SYBR Green, dry powder samples (AID 1159566); assay type: functional, cell-based;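 note: potency for growth inhibition with lower SYBR green DNA signal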
[5] = P. falciparum 3D7-ScDHODH growth inhibitors, dose response, SYBR Green, dry powder samples (AID 1159570); assay type: functional, cell-based;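 note: parasite growth measured after 72 hours of compound exposure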
[6] = P. falciparum ATP4 D1247Y mutant growth inhibitors, dose response, NITD609-resistant line, SYBR Green, dry powder (AID 1159571); assay type: functional, cell-based;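 note: parasites synchronized at ring stage by sorbitol before testing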
[7] = HEK293 Cytotoxicity Assay Measured in Cell-Based System Using Plate Reader - 7071-01_Inhibitor_Dose_CherryPick_Activity_Set2.; assay type: functional
[8] = HepG2 cell cytotoxicity, dose response, cytotoxicity control, plate reader, dry powder samples (AID 1159569); assay type: functional, cell-based;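 note: inhibitor potency with signal falling toward the positive control level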
HeLa = assay: HeLa cell cytotoxicity, dose response, cytotoxicity control, ATP luminescence, cherry-pick samples (AID 687004); assay type: functional, cell-based; details: Homo sapiens
HEK293 = assay: HEK293T cell cytotoxicity, dose response, cytotoxicity control, ATP luminescence, cherry-pick samples (AID 687005); assay type: functional, cell-based; details: Homo sapiens;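 note: cells exposed to compound for 48 hours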
[9] = cytotoxicity in HeLa cells, dose response, cytotoxicity control, cell-based, 24 h, dry powder, set 2 (AID 651774); assay type: functional
Protein Wnt-3a = Protein Wnt-3a (Mus musculus, UniProt P27467); assay: SAR analysis of small molecule antagonists of Gli-SUFU in a Wnt3a luminescent reporter assay.; assay type: functional
[10] = MC4R antagonists, dose response, counter-screen for LGR2 antagonist project, cell-based, plate reader, cherry pick (AID 743444); assay type: functional;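 note: transfected HEK 293 cells stimulated with alpha-MSH peptide; potency of inhibitors of the alpha-MSH evoked signal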
[11] = LGR2 antagonists, dose response, cell-based, HEK293, CRE-luciferase reporter, cherry pick (AID 743342); assay type: functional
[12] = target: Disintegrin and metalloproteinase domain-containing protein 17 (Homo sapiens, UniProt P78536); assay: ADAM17 protease inhibitors, dose response, counter-screen for ADAM10 exosite inhibitor project, biochemical, quenched FRET substrate (AID 743253)
[13] = ADAM10 inhibitors, peptide cleavage, dose response, biochemical, QFRET (AID 743254);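 note: ADAM10 enzyme with the DM2 quenched FRET peptide as substrate; EDANS fluorescence gain as the protease cuts the substrate; inhibitor potency against ADAM10 proteolytic activity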

T1 sequence (P08183 whole entry): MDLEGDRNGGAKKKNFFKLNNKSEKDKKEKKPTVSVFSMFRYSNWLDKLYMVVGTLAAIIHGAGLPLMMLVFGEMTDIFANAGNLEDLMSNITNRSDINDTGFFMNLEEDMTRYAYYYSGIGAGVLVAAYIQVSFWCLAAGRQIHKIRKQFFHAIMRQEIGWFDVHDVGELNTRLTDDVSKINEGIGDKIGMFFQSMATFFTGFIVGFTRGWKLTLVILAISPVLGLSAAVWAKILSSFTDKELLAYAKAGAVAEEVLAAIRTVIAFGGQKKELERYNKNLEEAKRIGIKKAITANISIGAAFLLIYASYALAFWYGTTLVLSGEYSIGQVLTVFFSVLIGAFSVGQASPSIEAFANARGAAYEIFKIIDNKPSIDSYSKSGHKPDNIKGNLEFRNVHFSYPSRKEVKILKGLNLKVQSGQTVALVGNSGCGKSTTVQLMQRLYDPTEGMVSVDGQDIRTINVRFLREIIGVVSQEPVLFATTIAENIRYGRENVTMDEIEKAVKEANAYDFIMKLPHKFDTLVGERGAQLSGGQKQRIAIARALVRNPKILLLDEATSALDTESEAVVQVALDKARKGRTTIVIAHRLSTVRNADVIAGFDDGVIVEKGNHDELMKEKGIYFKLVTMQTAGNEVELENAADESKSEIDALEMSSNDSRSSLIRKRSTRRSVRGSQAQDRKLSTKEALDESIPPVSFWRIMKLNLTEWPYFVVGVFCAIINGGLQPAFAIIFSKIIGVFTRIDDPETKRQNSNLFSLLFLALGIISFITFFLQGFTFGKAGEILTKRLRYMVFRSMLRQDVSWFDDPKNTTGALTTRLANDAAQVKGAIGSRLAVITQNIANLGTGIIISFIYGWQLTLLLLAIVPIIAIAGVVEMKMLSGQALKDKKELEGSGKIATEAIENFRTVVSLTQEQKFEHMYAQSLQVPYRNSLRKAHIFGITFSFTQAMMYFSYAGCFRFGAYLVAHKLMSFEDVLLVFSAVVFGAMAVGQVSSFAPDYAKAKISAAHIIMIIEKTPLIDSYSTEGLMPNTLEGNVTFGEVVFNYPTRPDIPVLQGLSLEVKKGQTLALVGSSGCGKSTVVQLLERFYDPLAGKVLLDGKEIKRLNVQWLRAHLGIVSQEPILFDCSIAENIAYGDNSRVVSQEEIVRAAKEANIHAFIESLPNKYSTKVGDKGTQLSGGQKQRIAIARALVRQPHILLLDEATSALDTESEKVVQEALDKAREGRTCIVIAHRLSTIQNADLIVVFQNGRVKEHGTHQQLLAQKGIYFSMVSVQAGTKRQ
Sequence of Disintegrin and metalloproteinase domain-containing protein 17 (P78536 whole entry, the tested form may be a part): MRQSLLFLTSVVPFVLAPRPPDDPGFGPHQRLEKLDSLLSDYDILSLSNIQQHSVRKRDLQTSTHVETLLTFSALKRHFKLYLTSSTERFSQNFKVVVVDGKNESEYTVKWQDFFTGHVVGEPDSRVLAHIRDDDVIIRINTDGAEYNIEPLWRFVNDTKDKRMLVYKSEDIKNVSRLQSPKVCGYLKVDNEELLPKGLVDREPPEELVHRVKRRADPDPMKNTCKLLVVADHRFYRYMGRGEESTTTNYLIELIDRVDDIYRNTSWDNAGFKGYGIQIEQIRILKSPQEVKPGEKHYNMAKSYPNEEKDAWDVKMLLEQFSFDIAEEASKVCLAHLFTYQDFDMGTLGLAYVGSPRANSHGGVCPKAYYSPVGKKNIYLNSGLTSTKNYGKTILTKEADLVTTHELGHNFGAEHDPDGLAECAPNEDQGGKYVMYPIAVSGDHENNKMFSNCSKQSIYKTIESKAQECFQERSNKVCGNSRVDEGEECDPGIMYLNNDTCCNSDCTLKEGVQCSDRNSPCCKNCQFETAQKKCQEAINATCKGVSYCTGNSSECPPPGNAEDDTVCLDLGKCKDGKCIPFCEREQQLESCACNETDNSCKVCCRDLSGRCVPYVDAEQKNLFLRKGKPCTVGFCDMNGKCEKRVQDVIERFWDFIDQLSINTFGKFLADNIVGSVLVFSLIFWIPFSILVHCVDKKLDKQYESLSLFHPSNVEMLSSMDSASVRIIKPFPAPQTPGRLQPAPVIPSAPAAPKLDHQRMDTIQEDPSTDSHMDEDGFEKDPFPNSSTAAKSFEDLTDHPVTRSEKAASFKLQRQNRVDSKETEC
Sequence of Beta-galactosidase (Q8VNN2 whole entry): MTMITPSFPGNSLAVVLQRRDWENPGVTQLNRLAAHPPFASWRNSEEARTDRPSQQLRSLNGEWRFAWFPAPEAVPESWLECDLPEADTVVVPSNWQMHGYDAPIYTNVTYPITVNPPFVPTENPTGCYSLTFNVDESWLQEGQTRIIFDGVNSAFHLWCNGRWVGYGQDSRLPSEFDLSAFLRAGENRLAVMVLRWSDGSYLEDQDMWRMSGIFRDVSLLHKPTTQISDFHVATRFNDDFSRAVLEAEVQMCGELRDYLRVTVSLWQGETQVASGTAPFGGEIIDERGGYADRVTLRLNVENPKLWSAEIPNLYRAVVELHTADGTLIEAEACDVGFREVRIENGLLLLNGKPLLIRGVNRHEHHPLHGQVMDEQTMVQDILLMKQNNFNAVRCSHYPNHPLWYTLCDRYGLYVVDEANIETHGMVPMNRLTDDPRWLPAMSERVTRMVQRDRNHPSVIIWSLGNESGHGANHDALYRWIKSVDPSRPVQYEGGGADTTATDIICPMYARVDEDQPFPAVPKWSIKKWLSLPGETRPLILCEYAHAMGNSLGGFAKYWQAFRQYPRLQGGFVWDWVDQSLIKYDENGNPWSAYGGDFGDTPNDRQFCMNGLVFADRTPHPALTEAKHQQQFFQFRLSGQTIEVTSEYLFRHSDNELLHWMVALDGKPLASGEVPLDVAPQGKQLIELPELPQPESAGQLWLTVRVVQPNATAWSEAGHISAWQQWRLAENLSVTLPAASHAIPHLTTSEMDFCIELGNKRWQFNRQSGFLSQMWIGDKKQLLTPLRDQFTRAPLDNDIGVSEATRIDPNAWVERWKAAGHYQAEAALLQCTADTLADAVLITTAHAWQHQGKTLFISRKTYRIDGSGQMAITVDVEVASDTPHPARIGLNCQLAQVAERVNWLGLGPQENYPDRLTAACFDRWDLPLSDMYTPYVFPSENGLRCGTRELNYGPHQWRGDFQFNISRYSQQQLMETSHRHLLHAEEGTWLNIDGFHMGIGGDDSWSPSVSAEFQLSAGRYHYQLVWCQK
Sequence of Kappa-type opioid receptor (P41145 whole entry): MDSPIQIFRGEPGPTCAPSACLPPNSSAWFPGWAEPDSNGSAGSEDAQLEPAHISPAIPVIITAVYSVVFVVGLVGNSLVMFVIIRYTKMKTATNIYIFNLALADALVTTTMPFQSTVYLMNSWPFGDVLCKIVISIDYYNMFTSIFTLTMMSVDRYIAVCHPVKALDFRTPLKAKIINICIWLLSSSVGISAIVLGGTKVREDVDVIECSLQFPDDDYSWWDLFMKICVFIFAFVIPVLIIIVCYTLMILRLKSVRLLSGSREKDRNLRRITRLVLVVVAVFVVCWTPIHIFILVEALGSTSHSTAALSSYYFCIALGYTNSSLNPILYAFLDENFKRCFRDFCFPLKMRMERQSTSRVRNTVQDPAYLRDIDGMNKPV
Sequence of Protein Wnt-3a (P27467 whole entry): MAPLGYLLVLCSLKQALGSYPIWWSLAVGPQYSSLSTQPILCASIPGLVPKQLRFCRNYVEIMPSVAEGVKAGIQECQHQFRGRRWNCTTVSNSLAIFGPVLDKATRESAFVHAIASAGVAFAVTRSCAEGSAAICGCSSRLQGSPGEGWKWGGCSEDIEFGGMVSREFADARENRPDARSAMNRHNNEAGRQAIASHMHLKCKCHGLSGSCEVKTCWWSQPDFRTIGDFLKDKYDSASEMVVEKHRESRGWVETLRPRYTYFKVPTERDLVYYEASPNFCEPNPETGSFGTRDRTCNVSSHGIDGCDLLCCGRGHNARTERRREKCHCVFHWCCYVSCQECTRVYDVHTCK

Structure (SMILES): CC1(C)CC(=O)C(=CNc2ncccc2/N=C/C2=C(O)CC(C)(C)CC2=O)C(=O)C1
- IC50 (Beta-galactosidase): 1.23 µM (active)
- IC50 [1]: < 0.98 µM (inactive)

Structure (SMILES): CC(=O)N1CCN(c2cc(-c3ccccc3)nc3cc(-c4cccc(Cl)c4)nn23)CC1
- EC50 [2]: 4.1 µM (active)
- EC50 [3]: 5.55 µM (active)

Structure (SMILES): COC(=O)N1CCCCC1c1cc(C(=O)Nc2ccc(OC)cc2C)no1 (centres undefined)
- AC50 (Vero): 34.5 µM (active)

Structure (SMILES): C[C@@H]1CCCCO[C@H](CN(C)Cc2ccc(Cl)c(Cl)c2)[C@H](C)CN([C@@H](C)CO)C(=O)c2cc(NC(=O)c3ccccc3)ccc2O1
- AC50 (A549): 31.5 µM (active)

Structure (SMILES): N#C[C@H]1[C@@H](c2ccc(C#CCC3CCCC3)cc2)[C@@H](CO)N1C(=O)c1ccccn1
- AC50 [4]: 0.851 µM (active)
- AC50 [5]: 1.73 µM (active)
- AC50 [6]: 1.44 µM (active)
- AC50 [7]: 15.7 µM (active)
- AC50 [8]: 46.9 µM (active)
- AC50 (HeLa): 27.8 µM (active)
- AC50 (HEK293): 15.7 µM (active)

Structure (SMILES): Cn1nnnc1NCc1ccc(C(F)(F)F)cc1
- AC50 [9]: > 70 µM (inactive)

Structure (SMILES): O=C(Nc1cc(N2CCCCC2)ncn1)c1ccc(C(F)(F)F)cc1
- IC50 (Protein Wnt-3a): > 21.8 µM (inactive)

Structure (SMILES): C[C@H](CO)N1C[C@H](C)[C@H](CN(C)C(=O)Nc2ccc(F)cc2)OCCCC[C@H](C)Oc2ccc(NC(=O)C3CCCCC3)cc2C1=O
- AC50 [10]: 65.8 µM (active)
- AC50 [11]: 1.82 µM (active)

Structure (SMILES): COc1ccc(C(=O)N/N=C/c2ccc(OC)c(COc3ccccc3)c2)cc1
- IC50 [12]: > 69.5 µM (inactive)
- IC50 [13]: > 69.5 µM (inactive)
